This experiment deals with T1, rat EP1 receptor (Rattus norvegicus, UniProt P70597).
T1 construct: expressed in transfected cells; host or cells: COS-1 cells, transient transfection with Lipofectamine 2000
T1 sequence (P70597 1-405): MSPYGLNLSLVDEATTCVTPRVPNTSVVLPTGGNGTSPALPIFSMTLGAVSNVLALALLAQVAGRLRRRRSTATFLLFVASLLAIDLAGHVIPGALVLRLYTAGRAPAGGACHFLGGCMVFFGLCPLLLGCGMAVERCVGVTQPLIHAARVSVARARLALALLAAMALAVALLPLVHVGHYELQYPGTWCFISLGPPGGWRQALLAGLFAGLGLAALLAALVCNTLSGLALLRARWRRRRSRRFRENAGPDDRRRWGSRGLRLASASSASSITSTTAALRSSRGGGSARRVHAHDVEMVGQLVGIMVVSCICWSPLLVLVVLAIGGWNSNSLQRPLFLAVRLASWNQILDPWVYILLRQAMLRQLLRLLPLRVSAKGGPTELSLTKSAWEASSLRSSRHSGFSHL
Description: Test for confirmation of EP1 receptor antagonism: inhibition of prostaglandin E2-induced increase in intracellular calcium concentration in rat EP1 receptor-expressing COS-1 cells. It is filed as cell-based. Conditions: prostaglandin E2 10 nM, intracellular calcium fluorescence signal. As for the experimental part: Test for Confirmation of EP1 Receptor Antagonism
(1) Preparation of Rat EP1 Expression Vector
Using Rat Kidney BD Marathon-Ready cDNA (Nippon Becton Dickinson Company, Ltd.) as a template, and using a forward primer shown in (SEQ ID NO:1) and a reverse primer shown in (SEQ ID NO:2), a first run of PCR was carried out using KOD-Plus-Ver 2.0 (Toyobo Co., Ltd.). Further, using this amplification product as a template, and using a forward primer shown in (SEQ ID NO:3) and a reverse primer shown in (SEQ ID NO:4), a second run of PCR was carried out in the same manner. The amplification product obtained by the second run of PCR was incorporated into a vector (pcDNA3.1 D/V5-His-TOPO (registered trademark), Invitrogen Japan K. K.). By a conventional method, the vector containing this amplification product was introduced into E. coli (One Shot TOP10 Competent Cells, Invitrogen Corporation) and transformed. This transformed E. coli was cultured in an LB agar medium for one day. After the culture, colonies were selected and cultured in an LB liquid medium containing 50 μg/mL of ampicillin. After the culture, the vector was purified using a QIAprep Spin Miniprep Kit (Qiagen K. K.). The base sequence of the insertion site of this vector (SEQ ID NO:5) was compared with the rat EP1 base sequence (Ptger1) registered as Accession No. NM_013100 in a publicly-known database (NCBI), and as a result, the base sequences completely matched except for a single base. Further, the amino acid sequence translated by the base sequence completely matched the amino acid sequence of the rat EP1 receptor registered as an NCBI Accession No. NP_037232. Therefore, it was confirmed that the cloned gene sequence was a base sequence of the rat EP1 receptor and the obtained amino acid sequence was that of the rat EP1 receptor. The pcDNA3.1 D/V5-His-TOPO (registered trademark) into which the nucleic acid shown in (SEQ ID NO:5) had been inserted was taken as a rat EP1-expressing vector.
(2) Preparation of Rat EP1 Receptor-Expressing Cells
COS-1 cells (Dainippon Sumitomo Pharma Co., Ltd.) were cultured until they reached confluence in an incubator at 37° C. under a 5% CO2 gas condition, using a D-MEM liquid medium (high glucose and L-glutamine contained, Invitrogen Corporation) to which a penicillin-streptomycin solution (Invitrogen Corporation, final concentration: 100 U/mL as benzylpenicillin; 100 μg/mL as streptomycin) as an antibiotic, MEM nonessential amino acids (Invitrogen Corporation, final concentration: 0.1 mM), and fetal calf serum (Sanko Junyaku Co., Ltd., final concentration: 10%) were added.
(2-2) COS-1 Cell Subculture
The cells that had reached confluence were stripped with 0.05% trypsin/0.53 mM EDTA•4Na (Invitrogen Japan K. K.) and resuspended in the liquid medium. The resuspended cells were diluted and cultured in the liquid medium at a spread ratio from 1:4 to 1:8.
(2-3) Preparation of Cells for Introduction of Rat EP1-Expressing Vector
The cells that had reached confluence were stripped with 0.05% trypsin/0.53 mM EDTA•4Na, and resuspended in a D-MEM liquid medium (high glucose and L-glutamine contained, Invitrogen Corporation) to which MEM nonessential amino acids (final concentration: 0.1 mM) and fetal calf serum (final concentration: 10%) were added. In each well of a Poly D-lysine-coated 96-well microplate (BD BioCoat (registered trademark), Nippon Becton Dickinson Company, Ltd.), this resuspended cell suspension culture was prepared to be 5×10^4 cells/well in 100 μL of the liquid medium, and 100 μL of the cell suspension was dispensed and seeded in each well. After seeding, the cells were cultured in an incubator at 37° C. under a 5% CO2 gas condition. Once the cells for introduction of a rat EP1-expressing vector were adhered (about 2 hours after seeding), introduction of the rat EP1-expressing vector was carried out in the following order.
(2-4) Introduction of Rat EP1-Expressing Vector […]
(Calcium flux is commonly read through the fluorescence of an indicator in the cells.)

As a reminder, the IC50 is the concentration at which inhibition is half-maximal. With `COc1ccc2c(c1)cc(-c1ccccc1)n2Cc1cccc(C(=O)NS(=O)(=O)C(C)C)n1` [Example 4-13, 6-(5-methoxy-2-phenylindol-1-ylmethyl)-N-(propane-2-sulfonyl)pyridine-2-carboxamide], the half-inhibitory concentration (IC50) was determined as 37 nM.
For `CCS(=O)(=O)NC(=O)c1cccc(Cn2c(-c3cc(F)ccc3F)cc3cc(OC)ccc32)n1` [Example 4-5, 6-[2-(2,5-difluorophenyl)-5-methoxyindol-1-ylmethyl]-N-(ethanesulfonyl)pyridine-2-carboxamide] the value was 47 nM; for `COc1cc2cc(-c3ccccc3)n(Cc3cccc(-c4nnn[nH]4)n3)c2cc1Cl` [Example 2-3, 6-chloro-5-methoxy-2-phenyl-1-[6-(1H-1,2,3,4-tetrazol-5-yl)pyridin-2-ylmethyl]-1H-indole], 67 nM.
With `COc1cc2cc(-c3ccccc3)n(Cc3cccc(C(=O)NS(C)(=O)=O)n3)c2cc1F` [Example 4-19, 6-(6-fluoro-5-methoxy-2-phenylindol-1-ylmethyl)-N-(methanesulfonyl)pyridine-2-carboxamide] the figure was 60 nM; with `CCC(C)c1cc2cc(OC)c(Cl)cc2n1Cc1cccc(C(=O)NS(=O)(=O)CC)n1` (stereo not shown) [Example 4-2, 6-[2-(butan-2-yl)-6-chloro-5-methoxyindol-1-ylmethyl]-N-(ethanesulfonyl)pyridine-2-carboxamide], 31 nM.
As to `COc1ccc2c(c1)cc(-c1ccccc1)n2Cc1cccc(C(=O)NS(=O)(=O)C2CC2)n1` [Example 4-14, N-(cyclopropanesulfonyl)-6-(5-methoxy-2-phenylindol-1-ylmethyl)pyridine-2-carboxamide], the IC50 stood at 63 nM.
On to `CCC(C)c1cc2cc(OC)ccc2n1Cc1cccc(-c2nnn[nH]2)n1` (stereo not shown) [Example 5-1, 2-(butan-2-yl)-5-methoxy-1-[6-(1H-1,2,3,4-tetrazol-5-yl)pyridin-2-ylmethyl]-1H-indole], for which the IC50 was found to be 23 nM.
On to `CCCS(=O)(=O)NC(=O)c1cccc(Cn2c(C(C)CC)cc3cc(OC)ccc32)n1` (stereo not shown) [Example 4-16, 6-[2-(butan-2-yl)-5-methoxyindol-1-ylmethyl]-N-(propane-1-sulfonyl)pyridine-2-carboxamide], for which the IC50 amounted to 43 nM.
As to `CCCS(=O)(=O)NC(=O)c1cccc(Cn2c(-c3ccccc3)cc3cc(OC)c(F)cc32)n1` [Example 4-22, 6-(6-fluoro-5-methoxy-2-phenylindol-1-ylmethyl)-N-(propane-1-sulfonyl)pyridine-2-carboxamide], the IC50 stood at 59 nM.
For `CCC(C)c1cc2cc(OC)ccc2n1Cc1cccc(C(=O)NS(=O)(=O)C(C)C)n1` (stereo not shown) [Example 4-17, 6-[2-(butan-2-yl)-5-methoxyindol-1-ylmethyl]-N-(propane-2-sulfonyl)pyridine-2-carboxamide] the value was 49 nM.
For `COc1cc2cc(-c3ccccc3)n(Cc3cccc(C(=O)NC#N)n3)c2cc1F` [Example 8-7, N-cyano-6-(6-fluoro-5-methoxy-2-phenylindol-1-ylmethyl)pyridine-2-carboxamide] the value was 97 nM.
`CCCS(=O)(=O)NC(=O)c1cccc(Cn2c(-c3ccccc3)cc3cc(OC)ccc32)n1` [Example 4-12, 6-(5-methoxy-2-phenylindol-1-ylmethyl)-N-(propane-1-sulfonyl)pyridine-2-carboxamide]: the half-maximal inhibitory concentration (IC50) stood at 30 nM.
For `COc1cc2cc(-c3ccoc3)n(Cc3cccc(-c4nnn[nH]4)n3)c2cc1Cl` [Example 5-4, 6-chloro-2-(furan-3-yl)-5-methoxy-1-[6-(1H-1,2,3,4-tetrazol-5-yl)pyridin-2-ylmethyl]-1H-indole] the value was 35 nM.
For `CCC(C)c1cc2cc(OC)ccc2n1Cc1cccc(C(=O)NS(=O)(=O)CC)n1` (stereo not shown) [Example 4-10, 6-[2-(butan-2-yl)-5-methoxyindol-1-ylmethyl]-N-(ethanesulfonyl)pyridine-2-carboxamide] the value was 46 nM; for `COc1cc2cc(-c3ccccc3)n(Cc3cccc(-c4noc(=O)[nH]4)n3)c2cc1F` [Example 6-6, 3-[6-(6-fluoro-5-methoxy-2-phenylindol-1-ylmethyl)pyridin-2-yl]-4,5-dihydro-1,2,4-oxadiazol-5-one], 22 nM.
For `CCC(C)c1cc2cc(OC)ccc2n1Cc1cccc(C(=O)NS(=O)(=O)C2CC2)n1` (stereo not shown) [Example 4-18, 6-[2-(butan-2-yl)-5-methoxyindol-1-ylmethyl]-N-(cyclopropanesulfonyl)pyridine-2-carboxamide], the IC50 was found to be 31 nM.
`COc1cc2cc(-c3ccsc3)n(Cc3cccc(-c4nnn[nH]4)n3)c2cc1F` [Example 2-4, 6-fluoro-5-methoxy-1-[6-(1H-1,2,3,4-tetrazol-5-yl)pyridin-2-ylmethyl]-2-(thiophen-3-yl)-1H-indole]: the IC50 was found to be 32 nM.
For `CCS(=O)(=O)NC(=O)c1cccc(Cn2c(-c3ccccc3)cc3cc(OC)c(F)cc32)n1` [Example 4-20, N-(ethanesulfonyl)-6-(6-fluoro-5-methoxy-2-phenylindol-1-ylmethyl)pyridine-2-carboxamide] the value was 40 nM; for `COc1ccc2c(c1)cc(C1(C)CC1)n2Cc1ccc(-c2nnn[nH]2)o1` [Example 5-7, 5-methoxy-2-(1-methylcyclopropyl)-1-[5-(1H-1,2,3,4-tetrazol-5-yl)furan-2-ylmethyl]-1H-indole], 64 nM; for `COc1cc2cc(-c3ccsc3)n(Cc3cccc(C(=O)NS(C)(=O)=O)n3)c2cc1F` [Example 1-5, 6-[6-fluoro-5-methoxy-2-(thiophen-3-yl)indol-1-ylmethyl]-N-(methanesulfonyl)pyridine-2-carboxamide], 49 nM.
With `CCS(=O)(=O)NC(=O)c1cccc(Cn2c(-c3ccccc3)cc3cc(OC)ccc32)n1` [Example 1-12, N-(ethanesulfonyl)-6-(5-methoxy-2-phenylindol-1-ylmethyl)pyridine-2-carboxamide] the figure was 81 nM; with `COc1cc2cc(C3(C)CC3)n(Cc3cccc(-c4nnn[nH]4)n3)c2cc1Cl` [Example 5-6, 6-chloro-5-methoxy-2-(1-methylcyclopropyl)-1-[6-(1H-1,2,3,4-tetrazol-5-yl)pyridin-2-ylmethyl]-1H-indole], 33 nM.
With `COc1ccc2c(c1)cc(-c1ccccc1)n2Cc1ccc(-c2nnn[nH]2)o1` [Example 2-2, 5-methoxy-2-phenyl-1-[5-(1H-1,2,3,4-tetrazol-5-yl)furan-2-ylmethyl]-1H-indole] the figure was 42 nM.
For the compound `COc1cc2cc(-c3ccccc3)n(Cc3cccc(-c4nnn[nH]4)n3)c2cc1F` [Example 5-3, 6-fluoro-5-methoxy-2-phenyl-1-[6-(1H-1,2,3,4-tetrazol-5-yl)pyridin-2-ylmethyl]-1H-indole], the IC50 came out at 31 nM.
With `COc1cc2cc(-c3ccccc3)n(Cc3cccc(C(=O)NS(=O)(=O)C4CC4)n3)c2cc1F` [Example 4-23, N-(cyclopropanesulfonyl)-6-(6-fluoro-5-methoxy-2-phenylindol-1-ylmethyl)pyridine-2-carboxamide] the figure was 28 nM.

The values are drawn from patent US8796247B2, “Indole derivative, and pharmacologically acceptable salt thereof” (Kissei Pharmaceutical Co., Ltd., priority 2011, dated 2014).
